Converted amounts (≈) assume the structure as drawn. Read-outs that look alike come from different tables or passages of the source.
Legend:
[1] = system: Mycobacterium kansasii 235/80; assay: Antimycobacterial MIC micromethod; type: cell-based; conditions: read-out: MIC M. kansasii 235/80
[2] = system: Mycobacterium tuberculosis, M. avium and M. kansasii; assay: Antimycobacterial MIC, summary over all mycobacterial strains; type: cell-based; conditions: at 1,000 µmol/L; mycobacteria other than M. kansasii
[3] = system: M. kansasii 6509/96 (clinically isolated strain); assay: Antimycobacterial MIC micromethod; type: cell-based; conditions: Mycobacterium kansasii, read-out: MIC M. kansasii 6509/96
[4] = system: eight Gram-positive and Gram-negative strains; assay: Antibacterial microdilution, summary over eight strains; type: cell-based; conditions: read-out: MIC, antibacterial action
Protocol: The in vitro antibacterial activity was assayed against eight Gram-positive and Gram-negative strains: Staphylococcus aureus CCM 4516/08, methicillin-resistant Staphylococcus aureus H 5996/08 (MRSA), Staphylococcus epidermidis H 6966/08, Enterococcus sp. J 14365/08; Escherichia coli CCM 4517, Klebsiella pneumoniae D 11750/08, ESBL-positive Klebsiella pneumoniae J 14368/08, and Pseudomonas aeruginosa CCM 1961.
The microdilution broth method modified according to standard M07-A07 in Mueller-Hinton broth (HiMedia Laboratories, Mumbai, India) adjusted to pH 7.4 (±0.2) was used. The tested compounds were dissolved in DMSO to the final concentrations ranging from […]. Benzylpenicillin (penicillin G) was used as a comparative drug. Bacterial inoculum in sterile water was prepared to match 0.5 McFarland scale ([…]). The minimum inhibitory concentrations were assayed as 90% (IC90) or higher reduction of growth when compared to the control. The determination of results was performed visually and spectrophotometrically (at 540 nm). The values of MICs were determined after 24 and 48 h of incubation in the darkness at 35 °C (±0.1) in a humid atmosphere.

HepG2 cells = assay: Cytotoxicity evaluation (CellTiter 96 MTS); type: cell-based, human; conditions: Homo sapiens, HepG2; 24 h, cytotoxicity; read-out: IC50 HepG2
Protocol: Seven esters and their parent salicylanilides with the most robust antimicrobial activity were tested for cytotoxicity in the human hepatocellular liver carcinoma cell line HepG2 (passages 21–24; ECACC, Salisbury, UK) using a standard colorimetric method measuring a tetrazolium salt reduction (CellTiter(R) 96 AQueous One Solution Assay, Promega G3580, Madison, WI, USA).
The cells were routinely cultured in Minimum Essentials Eagle Medium (Sigma-Aldrich, Darmstadt, Germany) supplemented with 10% foetal bovine serum (PAA; Biotech, Prague, Czech Republic), 1% of L-glutamine solution (Sigma-Aldrich), and non-essential amino acids solution (Sigma-Aldrich) in a humidified atmosphere containing 5% CO2 at 37 °C. For subculturing, the cells were harvested after trypsin/EDTA (Sigma-Aldrich) treatment at 37 °C. The cells treated with the tested substances were used as experimental groups. Untreated HepG2 cells were used as control groups.
The cells were seeded in density 1 × 10^4 cells per well in a 96-well plate with microscopic control. Next day, the cells were treated with each of the tested substances. […] The most of the tested compounds were prepared in incubation concentrations of 0.01–20 µM in triplicates. 4-(Trifluoromethyl)benzoic acid was applied in the concentrations of 10–4,000 µM in triplicates. The following types of controls were included: determination of 100% viability and 0% viability (the cells treated by 10% DMSO), no cell control and vehiculum controls. These checking samples were prepared in triplicates.
The treated cells were incubated together with controls at 37 °C for 24 h in 5% CO2 atmosphere. After this time reagent from the kit CellTiter 96 AQueous One Solution Cell Proliferation Assay was added. The CellTiter 96 assay is based on the reduction of tetrazolium salt MTS [3-(4,5-dimethylthiazol-2-yl)-5-(3-carboxymethoxyphenyl)-2-(4-sulfophenyl)-2H-tetrazolium] to water-soluble formazan dye by metabolically active cells. The reduction of the reagent is attributed to availability of NADH or NADPH. The decline in levels of these metabolically important compounds in the cell causes that the production of formazan is reduced. The tested plate was incubated for 2 h at 37 °C and 5% CO2 and after this time, the absorbance was recorded at 490 nm using a 96-well plate reader (TECAN, Infinite M200, Grödig, Austria).
The results were expressed as inhibitory concentration which is necessary to inhibit cell viability to 50% from the maximal (control) viability (IC50). A standard toxicological parameter IC50 was calculated in each of the tested substances using GraphPad Prism software (version 5.02; GraphPad Software Inc., San Diego, CA, USA).

M. kansasii = assay: Antimycobacterial MIC, summary for M. kansasii; type: cell-based; conditions: Mycobacterium kansasii, both strains; read-out: MICs towards M. kansasii
[5] = system: Mycobacterium avium 330/88; assay: Antimycobacterial MIC micromethod; type: cell-based
[6] = system: Mycobacterium tuberculosis 331/88 (H37Rv); assay: Antimycobacterial MIC micromethod, Šula's medium; type: cell-based; conditions: read-out: MIC Mtb. 331/88

## O=C(O)c1ccc(C(F)(F)F)cc1 [CF3-BA, 4-(trifluoromethyl)benzoic acid, reference compound]
[1]; 235/80, 168 h, 7 d
  MIC: 1000 µM (≈ 190 µg/mL)
[1]; 235/80, 336 h, 14 d
  MIC: > 1000 µM
[1]; 235/80, 504 h, 21 d
  MIC: > 1000 µM
[2]
  susceptibility of other mycobacteria: completely insusceptible
[3]; 168 h
  MIC: 250 µM (≈ 47.5 µg/mL)
[3]; 336 h, 14 d
  MIC: 1000 µM (≈ 190 µg/mL)
[3]; 504 h, 21 d
  MIC: 1000 µM (≈ 190 µg/mL)
[4]
  MIC: > 500 µM
HepG2 cells
  IC50: 564 µM
M. kansasii
  MIC: ≥ 250 µM
[5]; 330/88, 336 h, 14 d
  MIC: > 1000 µM
[5]; 330/88, 504 h, 21 d
  MIC: > 1000 µM
[6]; 336 h, 14 d
  MIC: > 1000 µM
[6]; 504 h, 21 d
  MIC: > 1000 µM

Source: PMC6270420, “Antibacterial Activity of Salicylanilide 4-(Trifluoromethyl)benzoates” (Molecules, 2013)
